Data reported in paper PMC4764977, “AZD8797 is an allosteric non-competitive modulator of the human CX3CR1 receptor” (Biochemical Journal, 2016).
pKi: −log10 of the molar value.

Experiments:
CX3CR1 [1] = target: T1, CX3CR1 (Homo sapiens, UniProt P49238); assay: 125I-CX3CL1 competition assay, HEK293 cells co-transfected with Gqi5-protein (Karlstrom et al.); type: binding; design: host or cells: CHO-K1; details: HEK293 Gqi5 vs CHO-hCX3CR1 membranes
T1 sequence (P49238 1-355): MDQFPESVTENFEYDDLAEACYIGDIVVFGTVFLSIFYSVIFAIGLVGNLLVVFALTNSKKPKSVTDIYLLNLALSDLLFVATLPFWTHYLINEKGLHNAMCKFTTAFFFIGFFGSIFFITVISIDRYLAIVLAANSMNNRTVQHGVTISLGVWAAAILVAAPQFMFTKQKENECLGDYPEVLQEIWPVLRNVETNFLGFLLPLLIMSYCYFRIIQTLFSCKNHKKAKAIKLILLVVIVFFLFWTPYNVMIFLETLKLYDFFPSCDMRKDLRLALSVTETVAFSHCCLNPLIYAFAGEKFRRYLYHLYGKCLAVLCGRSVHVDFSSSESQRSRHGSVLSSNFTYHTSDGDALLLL

CX3CR1 [2] = target: T1, CX3CR1; design: method as in PMID 23516963; details: HEK293 cells co-transfected with Gqi5-protein; read-out: Ki, 125I-CX3CL1 competition assay; cited from earlier work

Compound: CC(C)C[C@H](CO)Nc1nc(S[C@@H](C)c2ccccc2)nc2nc(N)sc12 [AZD8797]
- Higher affinity than in this paper's 125I-CX3CL1 competition assay (CX3CR1 [1]): ~100 fold
- pKi (CX3CR1 [2]): 8.40
